Blank lines part the entries; values can stand above or below the molecule they belong to.
How the values were obtained:
[1] = system: Plasmodium falciparum; assay: Antimicrobial activity against Plasmodium falciparum D6 infected in human erythrocytes after 72 hrs by SYBR green I fluorescence-based method; format: functional, organism-based; details: D6, 72 h
[2] = system: Plasmodium falciparum; assay: Antimicrobial activity against Plasmodium falciparum 7G8 infected in human erythrocytes after 72 hrs by SYBR green I fluorescence-based method; format: functional, cell-based; details: 7G8, 72 h
[3] = system: Plasmodium falciparum; assay: Antimicrobial activity against Plasmodium falciparum Dd2 infected in human erythrocytes after 72 hrs by SYBR green I fluorescence-based method; format: functional, cell-based; details: Dd2, 72 h
[4] = system: Plasmodium falciparum; assay: Antimicrobial activity against Mq-resistant Plasmodium falciparum D6 infected in human erythrocytes after 72 hrs by SYBR green I fluorescence-based method; format: functional, organism-based; details: D6, 72 h
[5] = system: Plasmodium falciparum; assay: Antimicrobial activity against chloroquine/MQ/atrovaquone-resistant Plasmodium falciparum TM90C2B infected in human erythrocytes after 72 hrs by SYBR green I fluorescence-based method; format: functional, organism-based
[6] = system: Plasmodium falciparum; assay: Antimicrobial activity against Plasmodium falciparum Cam6 infected in human erythrocytes after 72 hrs by SYBR green I fluorescence-based method; format: functional, organism-based; details: Cam6, 72 h
[7] = system: Plasmodium falciparum; assay: Antimicrobial activity against chloroquine/SP-resistant Plasmodium falciparum W2 infected in human erythrocytes after 72 hrs by SYBR green I fluorescence-based method; format: functional, organism-based; details: W2, 72 h
[8] = system: Plasmodium falciparum; assay: Antimicrobial activity against Plasmodium falciparum Thai6 infected in human erythrocytes after 72 hrs by SYBR green I fluorescence-based method; format: functional, organism-based; details: Thai6, 72 h
[9] = system: Plasmodium falciparum; assay: Antimicrobial activity against chloroquine-sensitive Plasmodium falciparum 3D7 infected in human erythrocytes after 72 hrs by SYBR green I fluorescence-based method; format: functional, organism-based; details: 3D7, 72 h
[10] = system: Plasmodium falciparum; assay: Antimicrobial activity against Plasmodium falciparum Dd2; format: functional
[11] = system: Plasmodium falciparum; assay: Antimicrobial activity against chloroquine-resistant Plasmodium falciparum K1; format: functional, organism-based
[12] = system: Plasmodium falciparum; assay: Antimicrobial activity against chloroquine-sensitive Plasmodium falciparum 3D7; format: functional, organism-based
[13] = Inhibition of beta-hematin formation; format: physicochemical
[14] = system: Plasmodium falciparum; assay: Antimicrobial activity against chloroquine-resistant Plasmodium falciparum W2 infected in human erythrocytes assessed as incorporation of [3H]-hypoxanthine by beta counting analysis; format: functional, organism-based

- IC50 [1]: 0.9 nM
- IC50 [2]: 0.9 nM
- IC50 [3]: 0.9 nM
SMILES: CCN(CC)CCNc1c(C)cnc2cc(Cl)ccc12

SMILES: CN(C)C(C)(C)CNc1ccnc2cc(Cl)ccc12
- IC50 [4]: 5.52 nM
- IC50 [5]: 5.52 nM
- IC50 [6]: 5.52 nM
- IC50 [7]: 5.52 nM
- IC50 [8]: 5.52 nM
- IC50 [9]: 5.52 nM

SMILES: COc1cc(NC(C)CCCN)c2ncccc2c1 (stereo not drawn) [PRIMAQUINE]
- IC50 [10]: 460 nM
- IC50 [11]: 460 nM
- IC50 [12]: 460 nM

SMILES: CC(C)(N)CNc1ccnc2cc(Cl)ccc12
- IC50 [4]: 5.52 nM
- IC50 [5]: 5.52 nM
- IC50 [6]: 5.52 nM
- IC50 [7]: 5.52 nM
- IC50 [8]: 5.52 nM
- IC50 [9]: 5.52 nM

SMILES: COc1cc(NC(C)CCCNc2ccnc3cc(Cl)ccc23)c2ncccc2c1 (stereo not drawn)
- IC50 [10]: 80 nM
- IC50 [11]: 80 nM
- IC50 [12]: 80 nM

- IC50 [13]: 27900 nM
SMILES: CCN(CC)CCCC(C)Nc1ccnc2cc(Cl)ccc12 (stereo not drawn) [CHLOROQUINE]

SMILES: NCCNCCNc1ccnc2cc(Cl)ccc12
- IC50 [14]: 60 nM
